Measured values as given in patent US8207157B2, “Methods and compositions for repelling arthropods” (The United States of America, as represented by the …, priority 2006, dated 2012).

Columns and labels:
[1] = test system: female Ae. aegypti; experiment: Competitive (two-port) olfactometer bioassay of attractants and inhibitors; assay type: in vivo, Aedes aegypti
Description: Mosquitoes choose to fly upwind into a port with the treatment or choose to remain in the cage. It is clear that in competition, these mosquitoes preferred the natural human odors over the blend by about a 5:1 margin.

[2] = test system: Anopheles albimanus mosquitoes; experiment: as above; assay type: in vivo; details: competing port: B + (1-MPZ) + (4-MM)
[3] = test system: female Aedes aegypti mosquitoes; experiment: Non-competitive olfactometer bioassay of absolute attraction to attractants with or without candidate inhibitors; assay type: in vivo; details: for Attraction Mean ± SE (%): 50 μL heterocycle combined with 500 μL 3-compound attractant blend, line Blend = attractant alone; for Attraction with 50 μL 1-MPZ mean ± SE (%): 3 min

Question: Which “Attraction mean ± SE (%), Treatment 2” value ([1]; port: B + (4-MM), competing port: B + (1-MPZ)) does the source give for `CN1CCOCC1` [4-MM, 4-methylmorpholine] here?
Answer: Its value is 8.0 ± 1.1%.

Question: What about the “Attraction mean ± SE (%), Treatment 2” value ([1]; port: B + (4-MM), competing port: B + (1-MPZ) + (4-MM)) of the same compound?
Answer: The value was 5.1 ± 1.8%.

Question: What about the “Attraction mean ± SE (%), Treatment 2” value ([2]; port: B + (4-MM)) of the same compound?
Answer: Its value is 5.2 ± 2.0%.

Question: `CCCCCCCCN1CCN(C)CC1` [1M-4-OPZ, 1-methyl-4-octylpiperazine] was tested. Which “Attraction mean ± SE (%), Treatment 2” value ([1]; port: B + (1-M-4-OPZ), competing port: B + (1-MPZ)) did it give?
Answer: The value was 24.5 ± 4.4%.

Question: With `C1CNCCN1` [piperazine] as the compound, how does the “Attraction Mean ± SE (%)” value [3] read?
Answer: Its value is 41.4%.

Question: Which “Total Catch (%)” value ([1]; both ports: Human + 1-MPZ (50 μL) vs Blend, 97.2% without 1-MPZ) does the source give for `CN1CCNCC1` [1-MPZ, 1-methylpiperazine] here?
Answer: Its value is 78.1%.

Question: What about the “Attraction mean ± SE (%), Treatment 1” value ([1]; port: B + (1-MPZ), competing port: B + (1-M-4-OPZ)) of the same compound?
Answer: Its value is 4.6 ± 1.5%.

Question: What about the “Attraction mean ± SE (%), Treatment 2” value ([1]; port: B + (1-MPZ), competing port: B + (1-MPZ) + (4-MM)) of the same compound?
Answer: The value was 5.1 ± 1.1%.

Question: And the “Attraction mean ± SE (%), Treatment 1” value ([1]; port: B + (1-MPZ), competing port: B + (4-MM))?
Answer: The value was 5.4 ± 1.3%.

Question: What about the “Attraction mean ± SE (%), Treatment with Inhibitor” value ([1]; port: Blend + inhibitor (50 μL each), competing port: Blend) of the same compound?
Answer: Its value is 3.4 ± 1.0%.

Question: What about the “Attraction mean ± SE (%), Treatment with Inhibitor” value ([1]; port: Blend + inhibitor (50 μL each), competing port: RH odors) of the same compound?
Answer: Its value is 0.9 ± 0.3%.

Question: What about the “Attraction mean ± SE (%), Treatment with Inhibitor” value ([1]; port: RH odors + inhibitor (50 μL each), competing port: Blend) of the same compound?
Answer: The value was 14.1 ± 2.7%.

Question: And the “Attraction mean ± SE (%), Treatment with Inhibitor” value ([1]; port: RH odors + inhibitor (50 μL each), competing port: LH odors)?
Answer: The value was 7.7 ± 1.2%.

Question: And the “Attraction ± SE (%), Treatment 1 port” value ([1]; port: human odor + 50 μL 1-MPZ, competing port: Blend)?
Answer: The value was 29.5 ± 3.2%.

Question: And the “Attraction with 50 μL 1-MPZ mean ± SE (%)” value ([3]; attractant: 1 mL 3-compound blend)?
Answer: Its value is 12.8 ± 1.8%.

Question: What about the “Attraction with 50 μL 1-MPZ mean ± SE (%)” value ([3]; attractant: human arm/hand odor) of the same compound?
Answer: The value was 23.5 ± 3.0%.

Question: And the “Attraction mean ± SE (%), Treatment 2” value ([2]; port: B + (1-MPZ))?
Answer: The value was 9.7 ± 3.3%.

Question: For `OCCN1CCN(CCO)CC1` [1,4-bis(2-hydroxyethyl)piperazine], which “Attraction Mean ± SE (%)” value ([3]; listed as 1,4-bis (2-hydroxyethyl)piperazine-2,2′-1,4-diyldiethanol) is on record?
Answer: Its value is 73%.
